Values joined by “and” are separate entries in the source; they are usually repeats but may differ in a detail not shown here. Equal entries are not always repeated.
Test system: Vibrio cholerae
Assay: Colistin MIC against Vibrio cholerae strains
Format: cell-based

colistin
Colistin MIC (V. cholerae strain 32-14, O antigen not given): >250 µg/mL | Colistin MIC (V. cholerae strain 33-36, O antigen O-1): >250 µg/mL | Colistin MIC (V. cholerae strain 35-44, O antigen O-1): >250 µg/mL | Colistin MIC (V. cholerae strain 50-1, O antigen O-1): 4 µg/mL and 8 µg/mL | Colistin MIC (V. cholerae strain 51-2, O antigen O-1): 4 µg/mL | Colistin MIC (V. cholerae strain 52-4, O antigen O-1): 4 µg/mL | Colistin MIC (V. cholerae strain 57-11, O antigen O-139): 4 µg/mL | Colistin MIC (V. cholerae strain 58-12, O antigen O-1): 125 µg/mL | Colistin MIC (V. cholerae strain 79-35, O antigen O-1): >250 µg/mL | Colistin MIC (V. cholerae strain 114/98931, O antigen O-1): 125 µg/mL | Colistin MIC (V. cholerae strain 461/99053, O antigen O-1): >250 µg/mL | Colistin MIC (V. cholerae strain 781, O antigen O-1): >250 µg/mL | Colistin MIC (V. cholerae strain 1837, O antigen O-139): >250 µg/mL | Colistin MIC (V. cholerae strain FMU-089933, O antigen O-139): 31.5 µg/mL | Colistin MIC (V. cholerae strain M-702-3, O antigen O-1): >250 µg/mL | Colistin MIC (V. cholerae strain N16117, O antigen O-1): >250 µg/mL | Colistin MIC (V. cholerae strain N16861, O antigen O-1): >250 µg/mL | Colistin MIC (V. cholerae strain NG288/36, O antigen O-139): >250 µg/mL | Colistin MIC (V. cholerae strain NG368/36, O antigen O-139): >250 µg/mL | Colistin MIC (V. cholerae strain NRU-20455, O antigen O-139): 8 µg/mL | Colistin MIC (V. cholerae strain NRU-20461, O antigen O-139): 8 µg/mL and 4 µg/mL | Colistin MIC (V. cholerae strain O-139 Argentina, O antigen O-139): >250 µg/mL
